Where a name gives a salt, the structure may show the parent alone. Read-outs that look alike come from different tables or passages of the source.
Experiments:
[1] = tested on: E. coli S30 extract (bacterial protein synthesis); assay: E. coli S30 extract coupled transcription-translation luciferase assay (inhibition of bacterial protein synthesis); assay type: biochemical; details: read-out: S30 IC50 (μM/% inhib.)
Procedure, shortened: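 Cell-free coupled transcription-translation in E. coli S30 circular-DNA extract, with pBESTluc plasmid as template and complete amino acid mix. Eight 2-fold compound dilutions were incubated with the extract 1 h at 37 °C, chilled, then luciferase luminescence was read. % inhibition was taken relative to no-inhibitor wells; no-DNA wells gave background.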

[2] = target: Rabbit Reticulocyte Lysate (eukaryotic protein synthesis); assay: Rabbit reticulocyte lysate luciferase assay (inhibition of eukaryotic protein synthesis); assay type: biochemical; details: read-out: Rabbit reticulocyte IC50 (μM/% inhib.)
Procedure, shortened: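 Nuclease-treated rabbit reticulocyte lysate translating luciferase control RNA, with complete amino acids, was incubated at 30° C. for 90 minutes with 2-fold serial compound dilutions. Luminescence was measured after adding luciferase reagent. % inhibition was relative to water controls, with no-RNA wells as background.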

[3] = tested on: P. aeruginosa (Pa); assay: Broth microdilution minimum inhibitory concentration (MIC); assay type: cell-based; details: for MIC: Pseudomonas aeruginosa, read-out: Pa MIC + bicarb
Procedure, shortened: (§1)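 Following CLSI M07-A9 with minor changes, growth medium was cation-adjusted Mueller-Hinton broth, alone or supplemented with bicarbonate (6.25 or 25 mM) or heat-inactivated human serum up to 50%. Each compound was tested over eight two-fold dilutions against 5×10^4 CFU per well.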

[4] = tested on: S. aureus (Sa); assay: as above; assay type: cell-based; details: Staphylococcus aureus, read-out: Sa + bicarb MIC
Procedure, shortened: as §1

[5] = tested on: A. baumannii (Ab); assay: as above; assay type: cell-based; details: Acinetobacter baumannii, read-out: Ab + bicarb MIC
Procedure, shortened: as §1

[6] = tested on: E. faecalis (Ef); assay: as above; assay type: cell-based; details: for MIC: Enterococcus faecalis, read-out: Ef + bicarb MIC
Procedure, shortened: as §1

[7] = tested on: E. coli (Ec); assay: as above; assay type: cell-based; details: Escherichia coli, read-out: E. coli + bicarb MIC
Procedure, shortened: as §1

[8] = class by IC50 or % inhibition @ 1 μM
[9] = P. aeruginosa, growth medium with sodium bicarbonate
[10] = S. aureus, growth medium with sodium bicarbonate
[11] = A. baumannii, growth medium with sodium bicarbonate
[12] = E. faecalis, growth medium with sodium bicarbonate
[13] = E. coli, growth medium with sodium bicarbonate
[14] = P. aeruginosa, growth medium supplemented with sodium bicarbonate
[15] = S. aureus, growth medium supplemented with sodium bicarbonate
[16] = A. baumannii, growth medium supplemented with sodium bicarbonate
[17] = E. faecalis, growth medium supplemented with sodium bicarbonate
[18] = E. coli, growth medium supplemented with sodium bicarbonate

CC(Cc1ccc(-n2ccc(NC(=O)N3CCN(C(=O)C(C)(C)N)CC3)nc2=O)cc1)N[C@H]1CC[C@H](N)CC1 (some centres unmarked) [Compound 171]
IC50 [1, 8]: > 1 µM
IC50 [2, 8]: > 1 µM
MIC [3, 9]: > 32 µg/mL
MIC [4, 10]: 8 to 32 µg/mL
MIC [5, 11]: > 32 µg/mL
MIC [6, 12]: > 32 µg/mL
MIC [7, 13]: < 8 µg/mL

C[C@@](N)(CO)C(=O)N1CCN(C(=O)Nc2ccn(-c3ccc(CCN4CCCC(N)CC4)cc3)c(=O)n2)CC1 (some centres unmarked) [Compound 35]
IC50 [1, 8]: > 1 µM
IC50 [2, 8]: > 1 µM
MIC [3, 14]: 8 to 32 µg/mL
MIC [4, 15]: < 8 µg/mL
MIC [5, 16]: > 32 µg/mL
MIC [6, 17]: < 8 µg/mL
MIC [7, 18]: < 8 µg/mL

CC(COc1ccc(-n2ccc(NC(=O)N3CCN(C(=O)C(C)(C)N)CC3)nc2=O)cc1)N1CC[C@H](CN)C1 (some centres unmarked) [Compound 190]
IC50 [1, 8]: < 0.5 µM
IC50 [2, 8]: > 1 µM
MIC [3, 9]: > 32 µg/mL
MIC [4, 10]: < 8 µg/mL
MIC [5, 11]: > 32 µg/mL
MIC [6, 12]: < 8 µg/mL
MIC [7, 13]: < 8 µg/mL

CC(Cc1ccc(-n2ccc(NC(=O)N3CCN(C(=O)C(C)(C)N)CC3)nc2=O)cc1)NCC1CNC1 (centres unmarked) [Compound 165]
IC50 [1, 8]: > 1 µM
IC50 [2, 8]: > 1 µM
MIC [3, 9]: > 32 µg/mL
MIC [4, 10]: > 32 µg/mL
MIC [5, 11]: > 32 µg/mL
MIC [6, 12]: > 32 µg/mL
MIC [7, 13]: 8 to 32 µg/mL

CC(C)(N)C(=O)N1CCN(C(=O)Nc2ccn(-c3ccc(C[C@H](N)C(=O)N4CC(N)C4)cc3)c(=O)n2)CC1 [Compound 146]
IC50 [1, 8]: > 1 µM
IC50 [2, 8]: > 1 µM
MIC [3, 14]: > 32 µg/mL
MIC [4, 15]: > 32 µg/mL
MIC [5, 16]: > 32 µg/mL
MIC [6, 17]: > 32 µg/mL
MIC [7, 18]: > 32 µg/mL

CC(N)C1CCN(CCc2cccc(-n3ccc(NC(=O)N4CCN(C(=O)C(C)(C)N)CC4)nc3=O)c2)CC1 (centres unmarked) [Compound 34]
IC50 [1, 8]: < 0.5 µM
IC50 [2, 8]: > 1 µM
MIC [3, 14]: > 32 µg/mL
MIC [4, 15]: < 8 µg/mL
MIC [5, 16]: > 32 µg/mL
MIC [6, 17]: < 8 µg/mL
MIC [7, 18]: < 8 µg/mL

CC(C)(N)C(=O)N1CCN(C(=O)Nc2ccn(-c3ccc(CN[C@H]4CC[C@H](N)CC4)c(OC(F)(F)F)c3)c(=O)n2)CC1 [Compound 332, hydrochloride salt]
IC50 [1, 8]: < 0.5 µM
IC50 [2, 8]: > 1 µM
MIC [3]: > 32 µg/mL
MIC [4]: 8 to 32 µg/mL
MIC [5]: > 32 µg/mL
MIC [6]: 8 to 32 µg/mL
MIC [7]: < 8 µg/mL

NC1CCN(Cc2ccc(-n3ccc(NC(=O)N4C[C@H]5C[C@@H](N)C[C@H]5C4)nc3=O)cc2)CC1 [Compound 295, trifluoroacetate salt]
IC50 [1, 8]: > 1 µM
IC50 [2, 8]: > 1 µM
MIC [3]: > 32 µg/mL
MIC [4]: > 32 µg/mL
MIC [5]: > 32 µg/mL
MIC [6]: > 32 µg/mL
MIC [7]: > 32 µg/mL

C[C@@H]1CCN(CCc2ccc(-n3ccc(NC(=O)N4CCN(C(=O)[C@](C)(N)CO)CC4)nc3=O)cc2)CC[C@H]1N (stereo in doubt) [Compound 28]
IC50 [1, 8]: < 0.5 µM
IC50 [2, 8]: > 1 µM
MIC [3, 14]: > 32 µg/mL
MIC [4, 15]: < 8 µg/mL
MIC [5, 16]: > 32 µg/mL
MIC [6, 17]: < 8 µg/mL
MIC [7, 18]: < 8 µg/mL

NCC1CN(C(=O)Nc2ccn(-c3ccc(CCN4CCCC(N)CC4)cc3)c(=O)n2)C1 (centres unmarked) [Compound 194]
IC50 [1, 8]: 0.5 to 1 µM
IC50 [2, 8]: > 1 µM
MIC [3, 9]: > 32 µg/mL
MIC [4, 10]: > 32 µg/mL
MIC [5, 11]: > 32 µg/mL
MIC [6, 12]: > 32 µg/mL
MIC [7, 13]: < 8 µg/mL

CC(Cc1ccc(-n2ccc(NC(=O)N3CCN(C(=O)C(C)(C)N)CC3)nc2=O)cc1)N1CC[C@H](CN)C1 (some centres unmarked) [Compound 170]
IC50 [1, 8]: < 0.5 µM
IC50 [2, 8]: > 1 µM
Pa MIC + bicarb [3, 9]: ++ (An MIC value (μg/mL) that is 8 μg/mL or greater and less than 32 μg/mL)
MIC [4, 10]: 8 to 32 µg/mL
MIC [5, 11]: > 32 µg/mL
Ef + bicarb MIC [6, 12]: + (An MIC value (μg/mL) that is 32 μg/mL or greater)
MIC [7, 13]: < 8 µg/mL

CC(C)(N)C(=O)N1CCN(C(=O)Nc2ccn(-c3ccc(CCN[C@H]4CC[C@H](N)CC4)cc3)c(=O)n2)CC1 [Compound 180]
IC50 [1, 8]: 0.5 to 1 µM
IC50 [2, 8]: > 1 µM
MIC [3, 9]: > 32 µg/mL
MIC [4, 10]: 8 to 32 µg/mL
MIC [5, 11]: > 32 µg/mL
MIC [6, 12]: > 32 µg/mL
MIC [7, 13]: < 8 µg/mL

CC(Cc1ccc(-n2ccc(NC(=O)N3CCN(C(=O)C(C)(C)N)CC3)nc2=O)cc1)N1CCC(N)CC1 (centres unmarked) [Compound 169]
IC50 [1, 8]: < 0.5 µM
IC50 [2, 8]: > 1 µM
MIC [3, 9]: 8 to 32 µg/mL
MIC [4, 10]: < 8 µg/mL
MIC [5, 11]: 8 to 32 µg/mL
MIC [6, 12]: < 8 µg/mL
MIC [7, 13]: < 8 µg/mL

COc1cc(-n2ccc(NC(=O)N3CCN(C(=O)C(C)(C)N)CC3)nc2=O)ccc1CN(CC1CC1)C1CCC(N)CC1 (centres unmarked) [Compound 317, hydrochloride salt]
IC50 [1, 8]: < 0.5 µM
IC50 [2, 8]: > 1 µM
MIC [3]: > 32 µg/mL
MIC [4]: < 8 µg/mL
MIC [5]: > 32 µg/mL
MIC [6]: 8 to 32 µg/mL
MIC [7]: < 8 µg/mL

CC(C)(N)C(=O)N1CCN(C(=O)Nc2ccn(-c3ccc(CN4CCCC(N)CC4)cc3)c(=O)n2)CC1 (centres unmarked) [Compound 365, hydrochloride salt]
IC50 ([1]; % inhibition @ 1 μM): < 0.5 µM
IC50 ([2]; % inhibition @ 1 μM): > 1 µM
MIC [3]: > 32 µg/mL
MIC [4]: < 8 µg/mL
MIC [5]: > 32 µg/mL
MIC [6]: < 8 µg/mL
MIC [7]: < 8 µg/mL

CC(Cc1ccc(-n2ccc(NC(=O)N3CCN(C(=O)C(C)(C)N)CC3)nc2=O)cc1)N1CC(CCN)C1 (centres unmarked) [Compound 347, hydrochloride salt]
IC50 [1, 8]: 0.5 to 1 µM
IC50 [2, 8]: > 1 µM
MIC [3]: > 32 µg/mL
MIC [4]: 8 to 32 µg/mL
MIC [5]: > 32 µg/mL
MIC [6]: > 32 µg/mL
MIC [7]: < 8 µg/mL

CC[C@@H]1CN(Cc2ccc(-n3ccc(NC(=O)N4CCN(C(=O)C(C)(C)N)CC4)nc3=O)cc2)CC[C@H]1N (stereo in doubt) [Compound 213]
IC50 [1, 8]: < 0.5 µM
IC50 [2, 8]: > 1 µM
MIC [3, 9]: > 32 µg/mL
MIC [4, 10]: < 8 µg/mL
MIC [5, 11]: > 32 µg/mL
MIC [6, 12]: < 8 µg/mL
MIC [7, 13]: < 8 µg/mL

C[C@@H](N)C1CCN(Cc2ccc(-n3ccc(NC(=O)N4CCN(C(=O)C(C)(C)N)CC4)nc3=O)cc2)CC1 [Compound 219]
IC50 [1, 8]: 0.5 to 1 µM
IC50 [2, 8]: > 1 µM
MIC [3, 9]: > 32 µg/mL
MIC [4, 10]: < 8 µg/mL
MIC [5, 11]: > 32 µg/mL
MIC [6, 12]: 8 to 32 µg/mL
MIC [7, 13]: < 8 µg/mL

CN(Cc1ccc(-n2ccc(NC(=O)N3CCN(C(=O)C(C)(C)N)CC3)nc2=O)cc1Cl)C1CCC(N)CC1 (centres unmarked) [Compound 272]
IC50 [1, 8]: < 0.5 µM
IC50 [2, 8]: > 1 µM
MIC [3, 9]: 8 to 32 µg/mL
MIC [4, 10]: < 8 µg/mL
MIC [5, 11]: < 8 µg/mL
MIC [6, 12]: < 8 µg/mL
MIC [7, 13]: < 8 µg/mL

CC(C)(N)C(=O)N1CCN(C(=O)Nc2ccn(-c3ccc(OCCN4CCCC(N)CC4)cc3)c(=O)n2)CC1 (centres unmarked) [Compound 187]
IC50 [1, 8]: < 0.5 µM
IC50 [2, 8]: > 1 µM
MIC [3, 9]: > 32 µg/mL
MIC [4, 10]: < 8 µg/mL
MIC [5, 11]: 8 to 32 µg/mL
MIC [6, 12]: < 8 µg/mL
MIC [7, 13]: < 8 µg/mL

Reference: patent publication US12503452B2 (Curza Global, LLC, priority 2019, dated 2025)
